Laboratory results reported in patent publication US11840686B2, “Modulation of prekallikrein (PKK) expression” (Ionis Pharmaceuticals, Inc., priority 2013, dated 2023).
Strand notation (5' to 3'): a small letter for the sugar, then the base; units joined by * are phosphorothioate-linked, units joined directly phosphodiester-linked; [ ] holds rarer units or linkages, { } end groups; capitals alone tell only the bases. e = 2'-O-(2-methoxyethyl) (MOE); k = constrained ethyl (cEt); [5mC] = 5-methylcytosine; d = 2'-deoxy (DNA)

Tested on: human PKK mRNA
Experiment: Antisense inhibition of human PKK mRNA in HepaRG cells, 1,000 nM, MOE/deoxy/cEt oligonucleotides (Example 3)
Type: cell-based
Details: HepaRG cells, 1,000 nM antisense oligonucleotide, Table 29
Experimental: Additional antisense oligonucleotides were designed targeting a PKK nucleic acid and were tested for their effects on PKK mRNA in vitro.
The chimeric antisense oligonucleotides in the tables below were designed as deoxy, MOE and cEt gapmers. The gapmers are 16 nucleosides in length wherein the nucleoside have either a MOE sugar modification, a cEt sugar modification, or a deoxy modification. The ‘Chemistry’ column describes the sugar modifications of each oligonucleotide. ‘k’ indicates an cEt sugar modification; the number indicates the number of deoxynucleosides; otherwise, indicates a deoxynucleoside; and ‘e’ indicates a 2′-O-methoxyethyl modification. The internucleoside linkages throughout each gapmer are phosphorothioate linkages. All cytosine residues throughout each oligonucleotide are 5-methylcytosines. “Start site” indicates the 5′-most nucleoside to which the gapmer is targeted in the human gene sequence. “Stop site” indicates the 3′-most nucleoside to which the gapmer is targeted in the human gene sequence.
Cultured HepaRG™ cells at a density of 20,000 cells per well were transfected using electroporation with 1,000 nM antisense oligonucleotide. After a treatment period of approximately 24 hours, RNA was isolated from the cells and PKK mRNA levels were measured by quantitative real-time PCR. Human primer probe set RTS3454 was used to measure mRNA levels. ISIS 531231 was also included in this assay. PKK mRNA levels were adjusted according to total RNA content, as measured by RIBOGREEN®. The antisense oligonucleotides were tested in a series of experiments that had similar culture conditions. Results are presented as percent inhibition of PKK, relative to untreated control cells.

Going from “548601 (eT*eT*kG*dG*dT*dG*dG*dT*dG*dG*dG*dA*dT*kT*kG*eG; antisense) [compound 548601]” to “548592 (e[5mC]*eT*k[5mC]*dA*d[5mC]*d[5mC]*dA*dG*dA*dG*dT*dT*dG*kT*k[5mC]*e[5mC]; antisense) [compound 548592]”, the “% inhibition” value falls from 18% to 7%.

Same assay, conditions: HepaRG cells, electroporation with 1,000 nM antisense oligonucleotide, approx. 24 hours, PKK mRNA by RT-PCR (RTS3454), relative to untreated control cells; Table 25 experiment

Going from “548203 (eT*eG*kA*d[5mC]*dT*dA*dG*dT*dG*dA*dA*dT*dG*kG*k[5mC]*eT; antisense) [compound 548203]” to “548189 (e[5mC]*eA*kT*dG*dA*dA*d[5mC]*dA*dT*d[5mC]*d[5mC]*dT*dA*kT*k[5mC]*e[5mC]; antisense) [compound 548189]”, the “% inhibition” value falls from 73% to 24%.

Going from “548193 (eT*eG*kT*d[5mC]*d[5mC]*dT*dG*dT*d[5mC]*dA*dA*d[5mC]*dA*kT*kA*eT; antisense) [compound 548193]” to “548216 (eG*eT*kG*d[5mC]*dA*dT*dA*dG*dA*d[5mC]*d[5mC]*d[5mC]*d[5mC]*kA*kA*e[5mC]; antisense) [compound 548216]”, the “% inhibition” value falls from 58% to 45%.

Same assay, conditions: HepaRG cells, electroporation with 1,000 nM antisense oligonucleotide, approx. 24 hours, PKK mRNA by RT-PCR (RTS3454), relative to untreated control cells; Table 26 experiment

Compared with “548303 (eG*eG*kG*d[5mC]*d[5mC]*d[5mC]*d[5mC]*d[5mC]*dA*dT*dG*dT*d[5mC]*k[5mC]*kA*eT; antisense) [compound 548303]”, “548300 (eG*e[5mC]*k[5mC]*d[5mC]*dA*dT*dG*dG*dT*dG*dA*dA*dT*k[5mC]*kT*eG; antisense) [compound 548300]” is higher in “% inhibition” value: 0% for the first, 53% for the second.

Same assay, conditions: HepaRG cells, electroporation with 1,000 nM antisense oligonucleotide, approximately 24 hours, primer probe set RTS3454, relative to untreated control cells; experiment of Table 23

Compared with “547933 (eT*e[5mC]*kG*dA*dT*dT*dT*dT*d[5mC]*d[5mC]*dA*dT*dA*k[5mC]*kA*eT; antisense) [compound 547933]”, “547987 (antisense eA*e[5mC]*kA*dG*d[5mC]*dG*dA*dA*dT*d[5mC]*dA*dT*d[5mC]*kT*kT*eT) [compound 547987]” is higher in “% inhibition” value: 44% for the first, 64% for the second.

First: 547988 (antisense eT*eG*kA*d[5mC]*dA*dG*d[5mC]*dG*dA*dA*dT*d[5mC]*dA*kT*k[5mC]*eT) [compound 547988]
Second: 547958 (e[5mC]*eA*kG*dG*dT*dT*dA*dA*dA*dA*dG*dG*d[5mC]*kT*kA*eT; antisense) [compound 547958]
The “% inhibition” value of the first is lower: 56% for the first, 57% for the second.

Same assay, conditions: HepaRG cells, electroporation with 1,000 nM antisense oligonucleotide, approximately 24 hours, primer probe set RTS3454, relative to untreated control cells; experiment of Table 24

Going from “548001 (antisense eA*e[5mC]*k[5mC]*dA*dG*dA*dG*d[5mC]*dT*d[5mC]*d[5mC]*d[5mC]*dT*kT*kG*eT) [compound 548001]” to “548007 (e[5mC]*eT*k[5mC]*dA*dA*dA*dG*dA*dG*dT*dA*dA*d[5mC]*k[5mC]*kA*eG; antisense) [compound 548007]”, the “% inhibition” value rises from 64% to 70%.

With “548017 (e[5mC]*eA*kA*dG*dA*dA*dG*dA*dG*dT*dT*dT*dG*kT*kT*e[5mC]; antisense) [compound 548017]” the “% inhibition” value was 3%.

Same assay, conditions: PKK mRNA, HepaRG cells, 1,000 nM antisense oligonucleotide; Table 31

With “548613 (antisense eT*eG*kG*d[5mC]*dG*dG*dG*dA*dT*d[5mC]*dG*dG*dT*kG*kG*eT) [compound 548613]” the “% inhibition” value was 39%.

Same assay, conditions: Table 19; HepaRG cells, electroporation with 1,000 nM antisense oligonucleotide, approximately 24 hours; PKK mRNA by RT-PCR (RTS3454), relative to untreated control cells

Going from “548076 (e[5mC]*eA*k[5mC]*d[5mC]*dT*dT*dT*d[5mC]*dT*d[5mC]*d[5mC]*dT*dT*k[5mC]*kG*eA; antisense) [compound 548076]” to “548087 (antisense eA*e[5mC]*kT*dA*dA*dG*dG*dG*dA*d[5mC]*d[5mC]*dA*d[5mC]*k[5mC]*kT*eG) [compound 548087]”, the “% inhibition” value falls from 26% to 24%.

“548146 (eG*eT*k[5mC]*d[5mC]*dT*dT*dA*dG*dG*dA*dT*dG*d[5mC]*kA*kA*eA; antisense) [compound 548146]” was tested, and the “% inhibition” value was 68%.

Same assay, conditions: Table 20; HepaRG cells, electroporation with 1,000 nM antisense oligonucleotide, approximately 24 hours; PKK mRNA by RT-PCR (RTS3454), relative to untreated control cells

First: 547917 (eA*e[5mC]*k[5mC]*d[5mC]*dT*dG*dG*d[5mC]*dA*dA*d[5mC]*dA*dT*k[5mC]*k[5mC]*eA; antisense) [compound 547917]
Second: 547918 (eA*eA*k[5mC]*d[5mC]*d[5mC]*dT*dG*dG*d[5mC]*dA*dA*d[5mC]*dA*kT*k[5mC]*e[5mC]; antisense) [compound 547918]
The “% inhibition” value of the first is higher: 33% for the first, 1% for the second.

First: 547908 (e[5mC]*eA*kA*dT*dT*dT*d[5mC]*dT*dG*dA*dA*dA*dG*kG*kG*e[5mC]; antisense) [compound 547908]
Second: 547900 (eT*eG*kT*dA*d[5mC]*dT*dT*dT*dA*dA*dT*dA*dG*kG*k[5mC]*eA; antisense) [compound 547900]
The “% inhibition” value of the first is higher: 94% for the first, 93% for the second.

Compared with “547883 (eA*e[5mC]*kT*dG*dG*d[5mC]*dA*dG*d[5mC]*dG*dA*dA*dT*kG*kT*eT; antisense) [compound 547883]”, “547847 (antisense e[5mC]*eT*k[5mC]*dG*dA*dT*dG*dG*d[5mC]*dA*dA*dG*d[5mC]*kA*k[5mC]*eT) [compound 547847]” is lower in “% inhibition” value: 99% for the first, 46% for the second.

“547911 (eT*eG*kG*d[5mC]*dA*dA*d[5mC]*d[5mC]*dA*dA*dT*dT*dT*k[5mC]*kT*eG; antisense) [compound 547911]” and “547898 (e[5mC]*eT*kT*dT*dA*dA*dT*dA*dG*dG*d[5mC]*dA*dA*kT*kT*eG; antisense) [compound 547898]” are the same in “% inhibition” value: 0% for the first, 0% for the second.

Same assay, conditions: Table 21 experiment; HepaRG cells, electroporation with 1,000 nM antisense oligonucleotide, approx. 24 hours; PKK mRNA by RT-PCR (RTS3454), relative to untreated control cells

First: 547803 (eT*eG*kT*dA*d[5mC]*dA*dT*dG*dG*dA*dA*dG*d[5mC]*kT*kA*e[5mC]; antisense) [compound 547803]
Second: 547800 (eA*e[5mC]*kA*dT*dG*dG*dA*dA*dG*d[5mC]*dT*dA*d[5mC]*kA*kT*e[5mC]; antisense) [compound 547800]
The “% inhibition” value of the first is lower: 0% for the first, 20% for the second.

Compared with “547755 (eT*eA*kA*dA*dA*dA*dT*dG*dA*dA*d[5mC]*dG*dG*kT*k[5mC]*eT; antisense) [compound 547755]”, “547814 (eG*eG*kG*dT*dG*dG*dA*dA*dT*dG*dT*dG*d[5mC]*kA*k[5mC]*e[5mC]; antisense) [compound 547814]” is higher in “% inhibition” value: 0% for the first, 60% for the second.

Same assay, conditions: Table 22 experiment; HepaRG cells, electroporation with 1,000 nM antisense oligonucleotide, approx. 24 hours; PKK mRNA by RT-PCR (RTS3454), relative to untreated control cells

Going from “547917 (eA*e[5mC]*k[5mC]*d[5mC]*dT*dG*dG*d[5mC]*dA*dA*d[5mC]*dA*dT*k[5mC]*k[5mC]*eA; antisense) [compound 547917]” to “547918 (eA*eA*k[5mC]*d[5mC]*d[5mC]*dT*dG*dG*d[5mC]*dA*dA*d[5mC]*dA*kT*k[5mC]*e[5mC]; antisense) [compound 547918]”, the “% inhibition” value rises from 54% to 65%.

Going from “547908 (e[5mC]*eA*kA*dT*dT*dT*d[5mC]*dT*dG*dA*dA*dA*dG*kG*kG*e[5mC]; antisense) [compound 547908]” to “547900 (eT*eG*kT*dA*d[5mC]*dT*dT*dT*dA*dA*dT*dA*dG*kG*k[5mC]*eA; antisense) [compound 547900]”, the “% inhibition” value falls from 71% to 68%.

First: 547883 (eA*e[5mC]*kT*dG*dG*d[5mC]*dA*dG*d[5mC]*dG*dA*dA*dT*kG*kT*eT; antisense) [compound 547883]
Second: 547847 (antisense e[5mC]*eT*k[5mC]*dG*dA*dT*dG*dG*d[5mC]*dA*dA*dG*d[5mC]*kA*k[5mC]*eT) [compound 547847]
The “% inhibition” value of the first is lower: 0% for the first, 72% for the second.

Going from “547911 (eT*eG*kG*d[5mC]*dA*dA*d[5mC]*d[5mC]*dA*dA*dT*dT*dT*k[5mC]*kT*eG; antisense) [compound 547911]” to “547898 (e[5mC]*eT*kT*dT*dA*dA*dT*dA*dG*dG*d[5mC]*dA*dA*kT*kT*eG; antisense) [compound 547898]”, the “% inhibition” value rises from 15% to 28%.

Same assay, conditions: Table 27; HepaRG cells, 1,000 nM antisense oligonucleotide; human PKK mRNA

First: 548377 (eG*eT*kG*dT*dG*d[5mC]*dT*dG*dA*dG*dG*dT*dT*kT*kG*e[5mC]; antisense) [compound 548377]
Second: 548320 (eG*e[5mC]*kA*d[5mC]*dA*d[5mC]*dA*dG*dA*d[5mC]*dT*dT*dG*k[5mC]*k[5mC]*e[5mC]; antisense) [compound 548320]
The “% inhibition” value of the first is higher: 80% for the first, 0% for the second.

First: 548313 (eG*e[5mC]*k[5mC]*dT*dT*dT*dG*dA*dG*dG*dG*dA*dG*kT*kG*eG; antisense) [compound 548313]
Second: 548306 (eA*eT*kG*dT*dG*dA*d[5mC]*dA*dG*dT*d[5mC]*dA*dG*kG*kG*eA; antisense) [compound 548306]
The “% inhibition” value of the first is higher: 35% for the first, 8% for the second.

“548330 (antisense eG*eA*k[5mC]*dT*dA*dG*d[5mC]*dT*dT*d[5mC]*dT*dA*d[5mC]*kT*kA*e[5mC]) [compound 548330]” was tested, and the “% inhibition” value was 34%.

Same assay, conditions: Table 28; HepaRG cells, 1,000 nM antisense oligonucleotide; human PKK mRNA

Compared with “548527 (antisense eT*eG*kT*dT*dT*d[5mC]*dA*dA*dG*dT*dG*d[5mC]*d[5mC]*kA*kG*eA) [compound 548527]”, “548473 (e[5mC]*e[5mC]*kA*dA*d[5mC]*d[5mC]*dT*dT*d[5mC]*d[5mC]*d[5mC]*dA*dA*kT*k[5mC]*eT; antisense) [compound 548473]” is lower in “% inhibition” value: 50% for the first, 0% for the second.

Going from “548503 (antisense e[5mC]*e[5mC]*kA*dT*d[5mC]*dT*dA*d[5mC]*dT*d[5mC]*d[5mC]*d[5mC]*d[5mC]*k[5mC]*kA*eT) [compound 548503]” to “548535 (antisense eG*eA*kG*dT*d[5mC]*dT*dT*dT*d[5mC]*d[5mC]*dA*dA*dT*k[5mC]*k[5mC]*eT) [compound 548535]”, the “% inhibition” value rises from 9% to 13%.

Same assay, conditions: Table 30; human PKK mRNA, HepaRG cells, 1,000 nM antisense oligonucleotide

Going from “548392 (eG*eT*kA*dG*dA*dG*d[5mC]*dA*dT*dG*dG*dA*dG*k[5mC]*kG*eA; antisense) [compound 548392]” to “548403 (eG*eA*kG*dT*dA*d[5mC]*dA*dT*dT*dG*dG*dG*d[5mC]*k[5mC]*k[5mC]*eA; antisense) [compound 548403]”, the “% inhibition” value falls from 31% to 25%.
